From patent EP0750903A1, “Deodorant composition” (Coöperatie Cosun U.A., priority 1995, dated 1997)

Experiments:
Assay in all cases: plate method, inhibition of growth on TSBA medium
Format in all cases: cell-based
Details in all cases: Table C; 1:50 dilution of an overnight culture; ester conc 400 ug/ml
[1] = system: Corynebacterium xerosis ATCC 373
Method: (§1) The tests reproduced below have been carried out on the basis of four strains which occur in the human armpit flora, viz. Micrococcus luteus ATCC 533, Staphylococcus epidermis ATCC 155, Corynebacterium xerosis ATCC 373 and Corynebacterium minutissimum ATCC 23348 (ATCC = American Type Culture Collection, Maryland 20852, USA).
(§2) The Micrococcus luteus strain has been incubated at 30°C and the other three strains at 37°C. All strains have been tested for purity and then frozen in glycerol in liquid nitrogen. In addition, the strains have been kept on plate (TSBA medium; TSBA = trypton soya broth (medium CM 129 of Oxoid Ltd. + 1% agar), and regularly re-inoculated (at least once a week).
(§3) The abovementioned sucrose-fatty acid esters have been used in concentrations of 400-800-1600-3200-6400 mg/l.
(§4) The plate method was made use of as test method. In this method, the medium was prepared in sucrose-fatty acid solutions in the above concentrations. The plate, which was provided with a TSBA medium (see above), was then inoculated with 100 µl of culture and incubated at the desired temperature (see above). In this connection, use was made of overnight cultures in TSB (= trypton soya broth) which have been inoculated in undiluted and diluted form.
(§5) The inhibition obtained in the test method of the growth of the respective strains is shown with the values 0 (no inhibition) and with 1, 2, 3, 4 or 5 plus signs, where + 0 - 20% inhibition ++ 20 - 40% inhibition +++ 40 - 60% inhibition ++++ 60 - 80% inhibition +++++ 80 - 100% inhibition.
(§6) A blank determination without sucrose-fatty acid solution on TSBA was used as a control (pos. cont. TSBA; see Tables A and B in Examples I and II).

[2] = system: Corynebacterium minutissimum ATCC 23348
Method: as §1, §2, §3, §4, §5, §6

[3] = system: Micrococcus luteus ATCC 533
Method: as §1, §2, §3, §4, §5, §6

[4] = system: Staphylococcus epidermis ATCC 155
Method: as §1, §2, §3, §4, §5, §6

lactitol stearate
inhibition of the growth, C.xerosis [1]: +++++ (+++++ 80 - 100% inhibition) | inhibition of the growth, C.minutissimum [2]: +++++ (+++++ 80 - 100% inhibition) | inhibition of the growth, M.luteus [3]: +++++ (+++++ 80 - 100% inhibition) | inhibition of the growth, S.epidermis [4]: 0 (0 (no inhibition))

sorbitol stearate
inhibition of the growth, C.xerosis [1]: 0 (0 (no inhibition)) | inhibition of the growth, C.minutissimum [2]: +++++ (+++++ 80 - 100% inhibition) | inhibition of the growth, M.luteus [3]: 0 (0 (no inhibition)) | inhibition of the growth, S.epidermis [4]: 0 (0 (no inhibition))

sucrose behenate
inhibition of the growth, C.xerosis [1]: +++ (+++ 40 - 60% inhibition) | inhibition of the growth, C.minutissimum [2]: +++++ (+++++ 80 - 100% inhibition) | inhibition of the growth, M.luteus [3]: 0 (0 (no inhibition)) | inhibition of the growth, S.epidermis [4]: 0 (0 (no inhibition))

sucrose hydroxystearate
inhibition of the growth, C.xerosis [1]: +++++ (+++++ 80 - 100% inhibition) | inhibition of the growth, C.minutissimum [2]: +++++ (+++++ 80 - 100% inhibition) | inhibition of the growth, M.luteus [3]: +++ (+++ 40 - 60% inhibition) | inhibition of the growth, S.epidermis [4]: 0 (0 (no inhibition))

sucrose isostearate
inhibition of the growth, C.xerosis [1]: +++++ (+++++ 80 - 100% inhibition) | inhibition of the growth, C.minutissimum [2]: +++++ (+++++ 80 - 100% inhibition) | inhibition of the growth, M.luteus [3]: + (+ 0 - 20% inhibition) | inhibition of the growth, S.epidermis [4]: 0 (0 (no inhibition))

sucrose oleate
inhibition of the growth, C.xerosis [1]: +++++ (+++++ 80 - 100% inhibition) | inhibition of the growth, C.minutissimum [2]: +++++ (+++++ 80 - 100% inhibition) | inhibition of the growth, M.luteus [3]: +++ (+++ 40 - 60% inhibition) | inhibition of the growth, S.epidermis [4]: 0 (0 (no inhibition))
